Assay results from patent publication US12466803B2 (priority 2021, dated 2025).

Each compound was assayed on phospho (S293) BCKDHA in human skeletal myocytes (assay: Phospho BCKDHA Alpha Surefire Cell Assay). Details: 60 minutes with compound, geometric mean.
Type: cell-based

IC50 [µM]	SMILES
> 29	C[C@@H]1CCc2cc(-c3c(C(=O)O)sc4ccccc34)ccc2O1 (single isomer, unassigned) [Example 46, 3-(2-methyl-3,4-dihydro-2H-1-benzopyran-6-yl)-1-benzothiophene-2-carboxylic acid, ENANT-2]
8.6	C[C@@H]1CCc2c(ccc(-c3c(C(=O)O)sc4cc(F)ccc34)c2F)O1 (single isomer, unassigned) [Example 77, 6-fluoro-3-(5-fluoro-2-methyl-3,4-dihydro-2H-1-benzopyran-6-yl)-1-benzothiophene-2-carboxylic acid, ENANT-1]

SMILES	IC50 [µM]
COc1c(F)cc(Cl)c(-c2c(C(=O)O)sc3cc(F)ccc23)c1F (atropisomer, axis not shown) [Example 15, 3-(6-Chloro-2,4-difluoro-3-methoxyphenyl)-6-fluoro-1-benzothiophene-2-carboxylic acid, ATROP-1]	> 60

Same assay, conditions: Homo sapiens, 1 h, 60 minutes with compound, geometric mean

SMILES	IC50 [µM]
CCc1nccc(-c2c(C(=O)O)sc3cc(F)ccc23)c1F [Example 112, 3-(2-ethyl-3-fluoropyridin-4-yl)-6-fluoro-1-benzothiophene-2-carboxylic acid]	2.3
O=C(O)c1sc2c(F)c(F)ccc2c1-c1ccccc1 [Example 4, 6,7-Difluoro-3-phenyl-1-benzothiophene-2-carboxylic acid]	> 60
Cc1c(F)c(F)cc(-c2c(C(=O)O)sc3cc(Cl)ccc23)c1F [Example 10, 6-Chloro-3-(2,4,5-trifluoro-3-methylphenyl)-1-benzothiophene-2-carboxylic acid]	0.066
COc1c(F)cc(Cl)c(-c2c(C(=O)O)sc3cc(F)ccc23)c1F [Example 14, 3-(6-Chloro-2,4-difluoro-3-methoxyphenyl)-6-fluoro-1-benzothiophene-2-carboxylic acid]	0.023
CC1CCc2cc(-c3c(C(=O)O)sc4cc(F)ccc34)cc(F)c2O1 (stereo not shown) [Example 71, 6-fluoro-3-(8-fluoro-2-methyl-3,4-dihydro-2H-1-benzopyran-6-yl)-1-benzothiophene-2-carboxylic acid]	4.5
O=C(O)c1sc2cc(Cl)ccc2c1-c1ccc(Cl)c(F)c1 [Example 20, 6-Chloro-3-(4-chloro-3-fluorophenyl)-1-benzothiophene-2-carboxylic acid]	2.4
C[C@@H]1CCc2cc(-c3c(C(=O)O)sc4cc(F)ccc34)c(F)cc2O1 (single isomer, unassigned) [Example 68, 6-fluoro-3-(7-fluoro-2-methyl-3,4-dihydro-2H-1-benzopyran-6-yl)-1-benzothiophene-2-carboxylic acid, ENANT-1]	6
C[C@@H]1CCc2cc(-c3c(C(=O)O)sc4cc(F)ccc34)ccc2O1 (single isomer, unassigned) [Example 43, 6-fluoro-3-(2-methyl-3,4-dihydro-2H-1-benzopyran-6-yl)-1-benzothiophene-2-carboxylic acid, ENANT-1]	> 60
O=C(O)c1sc2cc(Cl)ccc2c1-c1cc(Cl)c(F)cc1F [Example 132, ammonium 6-chloro-3-(5-chloro-2,4-difluorophenyl)-1-benzothiophene-2-carboxylate]	0.47
CCc1c(F)c(F)cc(-c2c(C(=O)O)sc3cc(Cl)ccc23)c1F [Example 134, 6-chloro-3-(3-ethyl-2,4,5-trifluorophenyl)-1-benzothiophene-2-carboxylic acid]	0.08
O=C(O)c1sc2cc(Cl)ccc2c1-c1ccc(F)c(F)c1F [Example 33, 6-chloro-3-(2,3,4-trifluorophenyl)-1-benzothiophene-2-carboxylic acid]	1.1
C[C@H]1CCc2ccc(-c3c(C(=O)O)sc4cc(F)ccc34)cc2O1 (single isomer, unassigned) [Example 57, 6-fluoro-3-(2-methyl-3,4-dihydro-2H-1-benzopyran-7-yl)-1-benzothiophene-2-carboxylic acid, ENANT-1]	> 60
Cc1c(Cl)ccc(-c2c(C(=O)O)sc3cc(F)ccc23)c1F [Example 38, 3-(4-chloro-2-fluoro-3-methylphenyl)-6-fluoro-1-benzothiophene-2-carboxylic acid]	0.46
COc1c(F)c(F)cc(-c2c(C(=O)O)oc3cc(Cl)ccc23)c1F [Example 18, 6-Chloro-3-(2,4,5-trifluoro-3-methoxyphenyl)-1-benzofuran-2-carboxylic acid]	0.57
CCOc1ccc(-c2c(C(=O)O)sc3cc(F)ccc23)c(F)c1F [Example 34, 3-(4-ethoxy-2,3-difluorophenyl)-6-fluoro-1-benzothiophene-2-carboxylic acid]	> 60
O=C(O)c1sc2cc(Cl)ccc2c1-c1cc(F)c(F)c(F)c1F [Example 149, ammonium 6-chloro-3-(2,3,4,5-tetrafluorophenyl)-1-benzothiophene-2-carboxylate]	0.95
O=C(O)c1sc2cc(F)cc(F)c2c1-c1ccccc1 [Example 5, Ammonium 4,6-difluoro-3-phenyl-1-benzothiophene-2-carboxylate]	> 60

Second part, the compound after the results:

IC50 [µM]	SMILES
0.43	O=C(O)c1sc2cc(F)ccc2c1-c1c(F)cc2c(c1F)CCCO2 [Example 1, 3-(5,7-Difluoro-3,4-dihydro-2H-1-benzopyran-6-yl)-6-fluoro-1-benzothiophene-2-carboxylic acid]
0.31	CCc1c(F)ccc(-c2c(C(=O)O)sc3cc(F)ccc23)c1F [Example 86, 3-(3-ethyl-2,4-difluorophenyl)-6-fluoro-1-benzothiophene-2-carboxylic acid]
1.8	COc1ccc(F)c(-c2c(C(=O)O)sc3cc(Cl)ccc23)c1F [Example 129, 6-chloro-3-(2,6-difluoro-3-methoxyphenyl)-1-benzothiophene-2-carboxylic acid]
1.8	O=C(O)c1sc2cc(F)ccc2c1-c1ccc(Cl)c(F)c1F [Example 65, 3-(4-chloro-2,3-difluorophenyl)-6-fluoro-1-benzothiophene-2-carboxylic acid]
> 60	COc1c(C#N)cc(F)c(-c2c(C(=O)O)sc3cc(F)ccc23)c1F [Example 75, 3-(4-cyano-2,6-difluoro-3-methoxyphenyl)-6-fluoro-1-benzothiophene-2-carboxylic acid]
0.048	COc1c(F)ccc(-c2c(C(=O)O)sc3cc(Cl)ccc23)c1F [Example 13, 6-Chloro-3-(2,4-difluoro-3-methoxyphenyl)-1-benzothiophene-2-carboxylic acid]
7.5	COc1c(C#N)ccc(-c2c(C(=O)O)sc3cc(F)ccc23)c1F [Example 49, 3-(4-cyano-2-fluoro-3-methoxyphenyl)-6-fluoro-1-benzothiophene-2-carboxylic acid]
1	Cc1cc(-c2c(C(=O)O)sc3cc(F)ccc23)c(F)cc1F [Example 95, 3-(2,4-difluoro-5-methylphenyl)-6-fluoro-1-benzothiophene-2-carboxylic acid]
3	COc1cc(-c2c(C(=O)O)sc3cc(F)ccc23)c(F)cc1Cl [Example 36, 3-(4-chloro-2-fluoro-5-methoxyphenyl)-6-fluoro-1-benzothiophene-2-carboxylic acid]
1.8	COc1cc(-c2c(C(=O)O)sc3cc(F)ccc23)c(F)c(F)c1Cl [Example 114, 3-(4-chloro-2,3-difluoro-5-methoxyphenyl)-6-fluoro-1-benzothiophene-2-carboxylic acid]
0.6	O=C(O)c1sc2cc(F)ccc2c1-c1cc(F)c(F)c(F)c1F [Example 109, 6-fluoro-3-(2,3,4,5-tetrafluorophenyl)-1-benzothiophene-2-carboxylic acid]
4.2	COc1c(F)cc(F)c(-c2c(C(=O)O)sc3cc(F)ccc23)c1Cl [Example 154, 3-(2-chloro-4,6-difluoro-3-methoxyphenyl)-6-fluoro-1-benzothiophene-2-carboxylic acid]
0.23	COc1c(F)c(F)cc(-c2c(C(=O)O)sc3ccccc23)c1F [Example 157, 3-(2,4,5-trifluoro-3-methoxyphenyl)-1-benzothiophene-2-carboxylic acid]
> 60	COc1ccc(-c2c(C(=O)O)sc3cc(F)ccc23)c(F)c1F [Example 35, 3-(2,3-difluoro-4-methoxyphenyl)-6-fluoro-1-benzothiophene-2-carboxylic acid]
0.48	Cc1cc(-c2c(C(=O)O)sc3cc(F)ccc23)c(F)cc1Cl [Example 106, 3-(4-chloro-2-fluoro-5-methylphenyl)-6-fluoro-1-benzothiophene-2-carboxylic acid]
1	CC1CCc2c(cc(F)c(-c3c(C(=O)O)sc4cc(F)ccc34)c2F)O1 (stereo not shown) [Example 3, 3-(5,7-Difluoro-2-methyl-3,4-dihydro-2H-1-benzopyran-6-yl)-6-fluoro-1-benzothiophene-2-carboxylic acid]
0.094	O=C(O)c1sc2cc(F)ccc2c1-c1cc(Cl)c(Cl)cc1F [Example 7, 3-(4,5-Dichloro-2-fluorophenyl)-6-fluoro-1-benzothiophene-2-carboxylic acid]
0.12	Cc1c(F)ccc(-c2c(C(=O)O)sc3cc(F)ccc23)c1F [Example 117, 3-(2,4-difluoro-3-methylphenyl)-6-fluoro-1-benzothiophene-2-carboxylic acid]
17	CCOc1ccc(F)c(-c2c(C(=O)O)sc3cc(F)ccc23)c1F [Example 93, 3-(3-ethoxy-2,6-difluorophenyl)-6-fluoro-1-benzothiophene-2-carboxylic acid]
0.72	Cc1ncc(F)c(-c2c(C(=O)O)sc3cc(F)ccc23)c1F [Example 8, 3-(3,5-Difluoro-2-methylpyridin-4-yl)-6-fluoro-1-benzothiophene-2-carboxylic acid]
0.62	O=C(O)c1sc2cc(F)ccc2c1-c1cc(Cl)c(F)cc1F [Example 108, 3-(5-chloro-2,4-difluorophenyl)-6-fluoro-1-benzothiophene-2-carboxylic acid]
2.9	O=C(O)c1sc2cc(F)ccc2c1-c1c(F)cc(F)cc1F [Example 60, 6-fluoro-3-(2,4,6-trifluorophenyl)-1-benzothiophene-2-carboxylic acid]
0.11	COc1c(F)c(F)cc(-c2c(C(=O)O)sc3cc(Cl)ccc23)c1F [Example 12, Ammonium 6-chloro-3-(2,4,5-trifluoro-3-methoxyphenyl)-1-benzothiophene-2-carboxylate]
